Measurements as given in patent US20080125493A1, “Use of agomelatine in obtaining medicaments intended for the treatment of periventricular leukomalacia” (LES LABORATOIRES SERVIER, priority 2006, published 2008).

Tested on: lesions of the white matter of the brain produced by intracerebral injection of ibotenate
Test: Neuroprotective effects on ibotenate-induced white matter lesions in 5-day-old baby mice
Type: in vivo
Description: Immediately after the administration of 10 μg of ibotenate, there are injected by the i.p. route, in a final volume of 5 μl, from 0.005 to 5 mg/kg of agomelatine, 10 mg/kg of fluoxetine used as standard antidepressant control, or the solvent alone. In a second experiment, the i.p. injection following the intracerebral injection of ibotenate is carried out 2 hours, 4 hours or 8 hours later.

SMILES | reduction of the lesions of the white matter (5 mg/kg i.p., co-administration immediately after 10 μg ibotenate intracerebral, 5-day-old mice) [%] | effect on the lesions of the white matter (dose dependence) (0.005 to 5 mg/kg i.p., co-administration immediately after 10 μg ibotenate) | course of lesion size over time (co-treated concomitantly or after 8 hours, same lesions for first 24 hours, then over the next 4 days) | neuroprotection with delayed administration (i.p. administration 8 hours after the injection of ibotenate) | neuroprotection with delayed administration (i.p. administration between 0 and 4 hours after the injection of ibotenate) | effect on the lesions of the white matter (10 mg/kg i.p., co-administration immediately after 10 μg ibotenate)
COc1ccc2cccc(CCNC(C)=O)c2c1 [agomelatine, N-[2-(7-methoxy-1-naphthyl)ethyl]acetamide] | 59 | dose-dependent reduction of the lesions of the white matter | very major regression | significant neuroprotection is restored | decreases | –
CNCCC(Oc1ccc(C(F)(F)F)cc1)c1ccccc1 (stereo not drawn) [fluoxetine, reference compound] | – | – | – | – | – | No significant effect
